Test results taken from US8354434B2, “Cyclourea compounds as calcium channel blockers” (Purdue Pharma L.P., priority 2006, dated 2013).

Experiments:
[1] = target: T1, N-type calcium channel (NTCC) (Homo sapiens, UniProt Q00975); experiment: FLIPR calcium mobilization assay for N-type calcium channel; format: cell-based; conditions: calcium mobilization in vitro assay, differentiated IMR32 cells
T1 construct: endogenous in cells; host or cells: IMR32 cells (ATCC), differentiated 8 days with dibutyryl cAMP and bromodeoxyuridine
Procedure: Cell maintenance and differentiation. Unless noted otherwise, cell culture reagents were purchased from Life Technologies of Rockville, Md. IMR32 cells (American Type Culture Collection, ATCC, Manassas, Va.) were routinely cultured in growth medium consisting of minimum essential medium containing 10% fetal bovine serum (FBS, Hyclone, Logan, Utah), 100 U/mL penicillin, 100 μg/mL streptomycin, 2 mM L-glutamine, 1 mM sodium pyruvate, and 1×MEM non-essential amino acids. 80-90% confluent flasks of cells were differentiated using the following differentiation medium: Growth medium plus 1 mM dibutyryl cyclic AMP (Sigma, St. Louis, Mo.), and 2.5 μM bromodeoxyuridine (Sigma). Cells were differentiated for 8 days by replacing differentiation medium every 2-3 days.
FLIPR Calcium Mobilization Assay for N-type Calcium Channel. One day prior to performing this assay, differentiated IMR32 cells were treated with 1×CellStripper, and seeded on poly-D-lysine-coated 96-well clear-bottom black plates (Becton Dickinson, Franklin Lakes, N.J.) at 200,000 cells/well. On the day of the assay, the cell plates were washed with IMR32 buffer (127 mM NaCl, 1 mM KCl, 2 mM MgCl2, 700 μM NaH2PO4, 5 mM CaCl2, 5 mM NaHCO3, 8 mM HEPES, 10 mM glucose, pH 7.4), then pre-stimulated with KCl and loaded as follows: 0.05 mL of IMR32 buffer, 0.05 mL of each compound tested diluted in IMR32 buffer containing 20 μM nitrendipine (Sigma), and 0.1 mL KCl dissolved in IMR32 buffer, plus Fluo-4 were added (3 μM final concentration, Molecular Probes, Eugene, Oreg.). Final test compound concentrations ranged from about 846 μM to about 17 μM, final nitrendipine concentration was 5 μM, and final KCl concentration was 90 mM. After 1 hour, the cells were washed twice with 0.05 mL of each compound tested in nitrendipine-containing IMR32 buffer (no KCl or Fluo-4), and then replaced with 0.1 mL of each compound tested in nitrendipine-containing IMR32 buffer. Plates were then transferred to a Fluorimetric Imaging Plate Reader (FLIPR^96, Molecular Devices, Inc., Sunnyvale, Calif.) for assay. The FLIPR measured basal Fluo-4 fluorescence for 315 seconds (i.e., 5 minutes and 15 seconds), then added 0.1 mL KCl agonist dissolved in IMR32 buffer and measured fluorescence for another 45 seconds. Final test compound concentrations on the cells after FLIPR read ranged from about 846 μM to about 17 μM, final nitrendipine concentration was 5 μM, and final KCl concentration was 90 mM. Data were collected over the entire time course and analyzed using Excel, Graph Pad Prism (version 3.02, Graph Pad, San Diego, Calif.), or Activity Base (version 5.1, IDBS, Parsippany, N.J.) software.

[2] = target: T2, L-type calcium channel (LTCC) (Rattus norvegicus, UniProt P22002); experiment: FLIPR calcium mobilization assay for L-type calcium channel; format: cell-based; conditions: calcium mobilization in vitro assay, differentiated A7r5 cells
T2 construct: differentiated A7r5 cells were trypsinized, then seeded on tissue culture treated 96-well clear-bottom black plates; endogenous in cells; host or cells: A7r5 cells (ATCC), differentiated 8 days with dibutyryl cAMP
Procedure: A7r5 (ATCC) cells were maintained and routinely cultured in A7r5 growth medium consisting of Dulbecco's Modified Eagles Medium containing 10% FBS, 100 U/mL penicillin, 100 μg/mL streptomycin, 4 mM L-glutamine, and 0.15% sodium bicarbonate. 80-90% confluent flasks of cells were differentiated using the following differentiation medium: A7r5 Growth Medium plus 1 mM dibutyryl cyclic AMP (Sigma). Cells were differentiated for 8 days by replacing differentiation medium every 2-3 days.
FLIPR Calcium Mobilization Assay for L-type Calcium Channel. One day prior to performing this assay, differentiated A7r5 cells were trypsinized, then seeded on tissue culture treated 96-well clear-bottom black plates (Becton Dickinson, Franklin Lakes, N.J.) at a dilution of 1:1 from a confluent T150 cm^2 flask. On the day of the assay, the plates were washed with A7r5 wash buffer (127 mM NaCl, 2 mM MgCl2, 700 μM NaH2PO4, 5 mM CaCl2, 5 mM NaHCO3, 8 mM HEPES, 10 mM glucose, pH 7.4), then loaded with 0.1 mL of A7r5 wash buffer containing Fluo-4 (3 μM final concentration, Molecular Probes, Eugene, Oreg.). After 1 hour, the cells were washed with 0.1 mL A7r5 wash buffer and resuspended in 0.05 mL A7r5 assay buffer that was composed of A7r5 wash buffer plus 50 μM valinomycin (Sigma). Plates were then transferred to a FLIPR^96 for assay. The FLIPR measured basal Fluo-4 fluorescence for 15 seconds, then added 0.05 mL of each compound tested diluted in A7r5 assay buffer at final concentrations ranging from about […]. Fluo-4 fluorescence was then measured for 5 minutes. 0.1 mL KCl agonist dissolved in A7r5 assay buffer was then added to the cells to produce a final concentration of 90 mM KCl, and fluorescence was measured for another 45 seconds. Data were collected over the entire time course and analyzed using Excel, Graph Pad Prism, or Activity Base software.

T2 sequence (P22002 whole entry): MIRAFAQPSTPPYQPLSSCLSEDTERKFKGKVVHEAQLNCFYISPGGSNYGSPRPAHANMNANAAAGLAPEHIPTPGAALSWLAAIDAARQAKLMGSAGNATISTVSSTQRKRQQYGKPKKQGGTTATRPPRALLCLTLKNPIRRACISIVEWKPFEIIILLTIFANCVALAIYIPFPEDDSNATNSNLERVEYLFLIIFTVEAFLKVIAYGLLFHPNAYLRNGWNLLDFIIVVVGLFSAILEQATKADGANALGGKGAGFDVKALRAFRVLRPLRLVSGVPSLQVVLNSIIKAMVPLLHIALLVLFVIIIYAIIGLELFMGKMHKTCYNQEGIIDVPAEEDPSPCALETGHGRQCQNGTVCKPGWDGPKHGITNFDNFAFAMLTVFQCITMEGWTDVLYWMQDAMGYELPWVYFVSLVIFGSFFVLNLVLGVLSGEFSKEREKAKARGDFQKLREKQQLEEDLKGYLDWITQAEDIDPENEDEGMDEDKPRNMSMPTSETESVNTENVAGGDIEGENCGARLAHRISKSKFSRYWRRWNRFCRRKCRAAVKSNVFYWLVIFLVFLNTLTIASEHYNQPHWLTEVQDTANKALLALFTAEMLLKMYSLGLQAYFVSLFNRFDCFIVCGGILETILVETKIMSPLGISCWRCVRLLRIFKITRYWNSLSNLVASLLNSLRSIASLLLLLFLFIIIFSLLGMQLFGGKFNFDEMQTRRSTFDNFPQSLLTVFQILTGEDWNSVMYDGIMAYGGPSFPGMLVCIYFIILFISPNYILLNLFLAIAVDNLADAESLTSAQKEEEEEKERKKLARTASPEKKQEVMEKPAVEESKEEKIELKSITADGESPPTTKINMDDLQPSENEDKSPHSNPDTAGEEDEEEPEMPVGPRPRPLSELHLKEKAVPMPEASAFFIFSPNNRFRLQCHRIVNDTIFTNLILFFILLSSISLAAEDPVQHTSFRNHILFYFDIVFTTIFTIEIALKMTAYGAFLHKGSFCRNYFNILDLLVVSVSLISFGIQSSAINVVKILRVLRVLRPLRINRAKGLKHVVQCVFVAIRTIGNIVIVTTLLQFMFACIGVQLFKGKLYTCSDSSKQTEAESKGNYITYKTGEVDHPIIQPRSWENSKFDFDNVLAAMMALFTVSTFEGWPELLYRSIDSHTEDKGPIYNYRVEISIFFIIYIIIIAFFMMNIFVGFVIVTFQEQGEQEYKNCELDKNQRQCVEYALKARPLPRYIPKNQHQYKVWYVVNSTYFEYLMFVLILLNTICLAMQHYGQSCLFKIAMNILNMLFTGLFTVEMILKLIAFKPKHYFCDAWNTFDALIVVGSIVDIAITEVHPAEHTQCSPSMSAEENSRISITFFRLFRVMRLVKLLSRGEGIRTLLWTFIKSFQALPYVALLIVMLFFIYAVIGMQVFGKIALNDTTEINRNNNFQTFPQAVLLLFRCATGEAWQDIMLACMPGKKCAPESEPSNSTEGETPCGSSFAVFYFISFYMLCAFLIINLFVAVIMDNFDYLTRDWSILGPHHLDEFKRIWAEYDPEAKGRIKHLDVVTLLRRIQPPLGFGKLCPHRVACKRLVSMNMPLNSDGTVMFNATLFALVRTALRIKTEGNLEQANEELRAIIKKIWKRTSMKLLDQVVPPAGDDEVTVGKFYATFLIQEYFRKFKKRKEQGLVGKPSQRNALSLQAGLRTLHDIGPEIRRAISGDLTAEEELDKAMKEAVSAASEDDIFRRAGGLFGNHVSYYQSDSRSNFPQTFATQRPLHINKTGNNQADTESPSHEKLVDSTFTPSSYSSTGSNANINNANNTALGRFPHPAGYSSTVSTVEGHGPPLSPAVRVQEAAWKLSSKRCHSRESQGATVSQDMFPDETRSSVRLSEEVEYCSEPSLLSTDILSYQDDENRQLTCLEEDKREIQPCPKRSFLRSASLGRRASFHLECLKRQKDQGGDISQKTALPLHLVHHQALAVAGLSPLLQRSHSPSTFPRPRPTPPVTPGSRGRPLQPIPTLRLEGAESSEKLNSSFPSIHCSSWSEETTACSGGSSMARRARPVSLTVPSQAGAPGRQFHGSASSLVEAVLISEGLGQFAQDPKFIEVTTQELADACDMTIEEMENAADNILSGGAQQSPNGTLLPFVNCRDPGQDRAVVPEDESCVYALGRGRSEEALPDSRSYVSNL
T2 sequence (P54287 whole entry partner): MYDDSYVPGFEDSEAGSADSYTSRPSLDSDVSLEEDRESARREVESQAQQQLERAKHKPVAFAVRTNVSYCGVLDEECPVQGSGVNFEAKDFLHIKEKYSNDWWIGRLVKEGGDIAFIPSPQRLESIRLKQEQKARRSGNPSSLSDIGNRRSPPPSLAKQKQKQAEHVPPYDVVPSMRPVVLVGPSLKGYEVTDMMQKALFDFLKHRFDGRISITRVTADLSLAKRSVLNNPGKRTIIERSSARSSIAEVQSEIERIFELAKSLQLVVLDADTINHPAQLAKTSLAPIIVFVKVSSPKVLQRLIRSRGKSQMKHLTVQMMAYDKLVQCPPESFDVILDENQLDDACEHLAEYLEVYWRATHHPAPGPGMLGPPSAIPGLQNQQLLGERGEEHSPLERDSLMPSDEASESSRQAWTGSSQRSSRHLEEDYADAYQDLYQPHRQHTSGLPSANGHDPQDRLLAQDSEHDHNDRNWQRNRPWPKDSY
T2 sequence (P54290 25-944 partner limits assumed): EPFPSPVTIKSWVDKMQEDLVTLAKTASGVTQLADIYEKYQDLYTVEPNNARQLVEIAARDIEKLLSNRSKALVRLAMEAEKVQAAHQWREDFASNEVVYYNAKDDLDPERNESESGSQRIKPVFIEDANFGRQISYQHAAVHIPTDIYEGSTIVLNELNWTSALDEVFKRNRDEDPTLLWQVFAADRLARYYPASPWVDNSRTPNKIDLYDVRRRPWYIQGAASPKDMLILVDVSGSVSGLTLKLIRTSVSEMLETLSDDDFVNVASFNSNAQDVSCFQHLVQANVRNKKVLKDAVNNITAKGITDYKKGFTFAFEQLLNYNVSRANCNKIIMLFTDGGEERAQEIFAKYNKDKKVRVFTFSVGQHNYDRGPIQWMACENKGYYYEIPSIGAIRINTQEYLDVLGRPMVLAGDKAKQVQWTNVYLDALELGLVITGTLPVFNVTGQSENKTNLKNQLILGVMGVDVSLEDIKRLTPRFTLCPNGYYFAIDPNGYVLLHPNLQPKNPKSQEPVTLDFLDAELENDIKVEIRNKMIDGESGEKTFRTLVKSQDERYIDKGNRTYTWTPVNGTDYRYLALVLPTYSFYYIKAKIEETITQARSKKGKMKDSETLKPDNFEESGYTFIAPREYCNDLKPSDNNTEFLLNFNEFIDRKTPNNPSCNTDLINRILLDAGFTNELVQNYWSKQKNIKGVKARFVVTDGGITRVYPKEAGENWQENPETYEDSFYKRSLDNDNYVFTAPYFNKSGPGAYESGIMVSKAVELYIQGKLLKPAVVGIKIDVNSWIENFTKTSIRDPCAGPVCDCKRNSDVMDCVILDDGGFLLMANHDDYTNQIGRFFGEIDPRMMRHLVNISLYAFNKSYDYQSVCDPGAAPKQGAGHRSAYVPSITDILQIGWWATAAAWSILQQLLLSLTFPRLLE
T2 sequence (P54290 945-1091 partner limits assumed): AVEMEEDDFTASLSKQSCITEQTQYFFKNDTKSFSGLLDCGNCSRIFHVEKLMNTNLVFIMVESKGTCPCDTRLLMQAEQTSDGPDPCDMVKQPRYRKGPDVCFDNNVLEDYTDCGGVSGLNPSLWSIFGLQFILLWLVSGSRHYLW

Row | Structure (SMILES) | IC50 [1] [nM] | IC50 [2] [µM]
1 | O=C1N(CCC(c2ccccc2)c2ccccc2)CCN1c1ccccc1 [1-(3,3-diphenylpropyl)-3-phenylimidazolidin-2-one] | 4330 | 10 to 20
2 | O=c1n(CCCC(c2ccc(F)cc2)c2ccc(F)cc2)c2ccccc2n1Cc1ccccn1 [1-[4,4-Bis(4-fluorophenyl)butyl]-3-(pyridin-2-yl)methyl-1,3-dihydro-benzoimidazol-2-one] | 810 | 4.69
3 | O=C1N(CCCC(c2ccc(F)cc2)c2ccc(F)cc2)CCN1Cc1ccncc1 [1-[4,4-Bis(4-fluorophenyl)butyl]-3-(pyridin-4-ylmethyl)imidazolidin-2-one] | 1190 | 3.43
4 | O=c1n(CCCC(c2ccc(F)cc2)c2ccc(F)cc2)c2ccccc2n1CCN1CCCCC1 [1-[4,4-Bis(4-fluorophenyl)butyl]-3-[2-(piperidin-1-yl)ethyl]-1,3-dihydro-benzoimidazol-2-one] | 2150 | > 20
5 | O=C1NCCN1CCCC(c1ccc(F)cc1)c1ccc(F)cc1 [1-[4,4-Bis(4-fluorophenyl)butyl]-imidazolidin-2-one] | 3690 | 
6 | O=C1N(CC=Cc2ccccc2)CCN1CCCC(c1ccc(F)cc1)c1ccc(F)cc1 [1-[4,4-bis(4-fluorophenyl)butyl]-3-(3-phenylprop-2-enyl)imidazolidin-2-one] | 1140 | 3.63
7 | O=C1N(CCCC(c2ccc(F)cc2)c2ccc(F)cc2)CCN1CCN1CCCC1 [1-[4,4-bis(4-fluorophenyl)butyl]-3-[2-(pyrrolidin-1-yl)ethyl]imidazolidin-2-one] | 1360 | 3.56
8 | O=C1N(CCCC(c2ccc(F)cc2)c2ccc(F)cc2)CCN1C1CC1 [1-[4,4-bis(4-fluorophenyl)butyl]-3-cyclopropylimidazolidin-2-one] | 620 | 0.41
9 | CN1CCN(CCCC(c2ccc(F)cc2)c2ccc(F)cc2)C1=O [1-[4,4-bis(4-fluorophenyl)butyl]-3-methylimidazolidin-2-one] | 670 | 0.79
10 | O=C(OCc1ccccc1)N1C(=O)N(CCCC(c2ccc(F)cc2)c2ccc(F)cc2)[C@H]2C[C@H]21 [2-[4,4-Bis(4-fluorophenyl)butyl]-4-benzyloxycarbonyl-2,4-diaza-bicyclo[3.1.0]hexan-3-one] | 340 | 3.29
